Legend:
[1] = Gamma-camera observation of activity distribution over time in rabbit after injection into the ear vein; assay type: in vivo; details: for livermax (time of maximal liver activity after the injection) / livermax/2 (half-life of the activity in the liver, outside of the gallbladder): rabbit, 0.5 mCi, ear vein, Tc-99m labelled
Experimental: (1) 0.5 mCi of the labelled diagnostic agent ia administered to a rabbit by injection into the ear vein, and the distribution of the activity is observed during the passage of time by means of a gamma-camera connected with a data processing system. The progress of the activity in defined organs is thus observed. The following parameters are determined:
1. livermax =time of maximal liver activity after the injection
2. livermax/2 =half-life of the activity in the liver (outside of the gallbladder).
1.8 g (2,4,5-trimethylacetanilido)-iminodiacetic acid is dissolved in 20 ml of 0.5 N sodium hydroxide solution and 36 mg of SnCl2.2H2 O (dissolved in 6 ml of 0.1 N hydrochloric acid) are added. The batch is stirred for 5 minutes, the pH is adjusted to 6 by means of hydrochloric acid, the batch is brought to 60 ml and divided into 1 ml portions. 10 mCi of Tc-99m pertechnetate in 4 ml of physiological saline solution are added to such a portion. […] All operations were carried out under a protective N2 gas atmosphere.

[2] = Distribution of radioactivity in the organs of rats after injection into the thigh vein; assay type: in vivo, rat; details: for radioactivity in intestines / radioactivity in kidneys / radioactivity in liver: rat, 30 μCi, thigh vein
Experimental: 2. 30 μCi each of the labelled diagnostic agent are administered to groups of 12 rats each by injection into the thigh vein. Subsequently, 3 animals each are killed after 5, 10, 20 and 30 minutes, and the distribution of radioactivity in the organs is determined.
After stirring for 5 minutes, the pH is adjusted to 6 by means of hydrochloric acid, the batch is brought to 233 ml, divided into 1 ml portions in beaded rim vials, and frozen with liquid nitrogen. Subsequently, the product is lyophilized, the vials are filled with nitrogen and closed. After a storage time of 60 days, 0.3 mCi to Tc-99m pertechnetate in 10 ml of physiological saline solution is injected into the closed vials. After a reaction time of 20 minutes, 0.5 ml each of the diagnostic agent so obtained is administered intravenously to rats (typical test results are indicated in Table 2).

rats = experiment: Toxicity (dosis tolerata maxima, LD50) in rats; assay type: in vivo
mice = experiment: Toxicity (dosis tolerata maxima, LD50) in mice; assay type: in vivo
[3] = compared to the hitherto known products

Row | livermax (time of maximal liver activity after the injection) [1] | livermax/2 (half-life of the activity in the liver, outside of the gallbladder) [1] | radioactivity in intestines ([2]; 5 minutes) | radioactivity in kidneys ([2]; 5 minutes) | radioactivity in liver ([2]; 5 minutes) | radioactivity in intestines ([2]; 10 minutes) | radioactivity in kidneys ([2]; 10 minutes) | radioactivity in liver ([2]; 10 minutes) | radioactivity in intestines ([2]; 20 minutes) | radioactivity in kidneys ([2]; 20 minutes) | radioactivity in liver ([2]; 20 minutes) | radioactivity in intestines ([2]; 30 minutes) | radioactivity in kidneys ([2]; 30 minutes) | radioactivity in liver ([2]; 30 minutes) | Compound | passage through the liver [1, 3] | LD50 (rats) | dosis tolerata maxima (rats) | activity concentration in the kidney [2, 3] | LD50 (mice) | dosis tolerata maxima (mice)
1 | 5.7 min | 8.2 min | 43.2% | 7.4% | 21.7% | 65.9% | 7.4% | 9.6% | 80.8% | 5.8% | 2.2% | 79.7% | 4.9% | 1.0% | ^99m Tc-(2,6-dimethylacetanilido)-iminodiacetate [HIDA] |  |  |  |  |  | 
2 | 6.8 min | 15.7 min | 71.2% | 4.3% | 6.9% | 79.9% | 4.2% | 3.4% | 81.7% | 3.6% | 1.6% | 81.8% | 3.4% | 1.5% | ^99m Tc-(2,6-diethylacetanilido)-iminodiacetate [EHIDA] |  |  |  |  |  | 
3 | 4.6 min | 15.3 min | 60.9% | 4.4% | 10.0% | 65.3% | 4.4% | 7.0% | 71.9% | 4.4% | 4.4% | 72.2% | 3.8% | 4.4% | CC(C)c1cccc(C(C)C)c1NC(=O)CN(CC(=O)O)CC(=O)O [2,6-diisopropyl-, (2,6-diisopropylacetanilido)-iminodiacetate] |  |  |  |  |  | 
4 | 4.2 min | 10.0 min | 57.0% | 3.6% | 23.5% | 66.0% | 3.8% | 12.1% | 79.2% | 3.8% | 2.9% | 81.0% | 3.3% | 1.6% | Cc1cc(C)c(NC(=O)CN(CC(=O)O)CC(=O)O)c(C)c1 [2,4,6-trimethyl-, (2,4,6-trimethylacetanilido)iminodiacetate] |  |  |  |  |  | 

Row | Compound | livermax (time of maximal liver activity after the injection) [1] | livermax/2 (half-life of the activity in the liver, outside of the gallbladder) [1] | radioactivity in intestines ([2]; 5 minutes) | radioactivity in kidneys ([2]; 5 minutes) | radioactivity in liver ([2]; 5 minutes) | radioactivity in intestines ([2]; 10 minutes) | radioactivity in kidneys ([2]; 10 minutes) | radioactivity in liver ([2]; 10 minutes) | radioactivity in intestines ([2]; 20 minutes) | radioactivity in kidneys ([2]; 20 minutes) | radioactivity in liver ([2]; 20 minutes) | radioactivity in intestines ([2]; 30 minutes) | radioactivity in kidneys ([2]; 30 minutes) | radioactivity in liver ([2]; 30 minutes) | passage through the liver [1, 3] | LD50 (rats) | dosis tolerata maxima (rats) | activity concentration in the kidney [2, 3] | LD50 (mice) | dosis tolerata maxima (mice)
5 | Cc1cc(C)c(NC(=O)CN(CC(=O)O)CC(=O)O)cc1C [TMIDA, (2,4,5-trimethylacetanilido)-iminodiacetate] | 2.6 min | 7.7 min | 56.8% | 3.3% | 19.1% | 68.8% | 3.1% | 9.6% | 81.1% | 2.5% | 2.4% | 82.0% | 2.1% | 1.2% | more rapid passage through the liver | 255 mg per kg of test animal | 189 mg/kg of body weight | decreased activity concentration in the kidney | 246 mg per kg of test animal | 189 mg/kg of body weight

Source: patent publication US4318898A, “Technetium-99m-labelled (2,4,5-trimethylacetanilido)-iminodiacetate for liver function diagnosis, chloroacetric acid (2,4,5-trimethylanilide), (2,4,5-trimethylacetanilido)-iminodiacetate, and process for their preparation” (Hoechst Aktiengesellschaft, priority 1978, dated 1982)
